Measured values published in patent US20260240884A1, “MIXTURE OF HUMAN MILK OLIGOSACCHARIDES” (N.V. Nutricia, priority 2023, published 2026).

Key:
[1] = tested on: RSV-A2; test: Pre-incubation of HEp-2 cells with HMOs before RSV-A2 infection (Viral ToxGlo); format: cell-based, respiratory syncytial virus
Experimental: To assess the effect of mixtures of HMOs on a negative-sense single-stranded RNA virus in vitro infection assays were performed with RSV-A2 strain. Pre-incubation of either HEp-2 cells or RSV-A2 with HMOs prior to infection was compared to assess anti-viral activity. Hep2 cells were exposed to the following conditions as discussed in more detail separately: • I. Pre-incubation of HEp-2 cells with HMOs before viral infection. • II.
HEp-2 cells were seeded in white [Greiner 655098]96 well plates in assay medium (EMEM [Sigma M2279]) supplemented with 2% heat-inactivated fetal bovine serum (HI-FBS) [Gibco 10500064], 1% Penicillin/streptomycin [Gibco 15140122] and 1% L-glutamine [Gibco 25030024] and incubated at 37° C. and 5% CO2 for 5 hours.
HMO mixtures were prepared in sterile water and ribavirin (compound that blocks viral RNA synthesis and viral mRNA capping) was prepared in 1% DMSO at 10× test concentration in a round-bottom 96-well plate [Corning 3788], then serially diluted 2-fold.
The following compounds were assessed for their capacity to inhibit RSV-A2 viral infection: • 2′-FL • A mixture of GOS:FOS at a 9:1 weight ratio • Total HMOs • Mixture of 5 HMOs • Mixture of 19 HMOs • 6′-SL
Test compounds were subsequently transferred to the HEp-2 cell plates. Additional assay medium was added to ensure a final HMO concentration range of 0.13-16 mg/mL. Cell plates were incubated for 24 hours at 37° cand 5% CO2.
After 24-hour incubation with the test conditions RSV-A2 was added to the HMO containing HEp-2 cell plates to achieve a final multiplicity of infection [MOI] of 0.5. Cell plates were incubated for a further 72 hours at 37° C. and 5% CO2.
Viral ToxGlo™ [Promega G8943] was added to the plates to assess cell metabolism following viral infection and HMO treatment. After 20 minutes incubation, luminescence of each plate was measured on a spectrophotometer. Data were analysed using GraphPad Prism software to determine the concentration effective in producing 50% of viral inhibition expressed as ECso values for ribavirin and HMOs where relevant.

[2] = tested on: RSV-A2; test: Pre-incubation of RSV-A2 with HMOs prior to infection of HEp-2 cells (Viral ToxGlo); format: cell-based, respiratory syncytial virus
[3] = tested on: SARS-CoV2 WA1; format: cell-based; conditions: virus pre-incubated 1 h with 0.5-16 mg/mL; MOI 0.1; 48 h; FIG. 1
[4] = tested on: IL-8 secretion of HT-29 cells; test: IL-8 secretion and viability of HT-29 cells pre-incubated with test compounds and challenged with Lyovec-complexed Poly I:C; format: cell-based, Human
[5] = tested on: rotavirus (RV) strain SA11; test: Caco-2 epithelial barrier model infected with rotavirus SA11 (TEER, lucifer yellow permeability); format: cell-based; conditions: Caco-2, 5% (50 mg/ml) for 4 h before SA11 MOI 0.1; 20 h p.i.; FIG. 2A

SMILES	Maximum viral inhibition (%) ([1]; HEp-2 cells pre-incubated 24 h, 0.13-16 mg/mL, RSV-A2 MOI 0.5, 72 h)	Test concentration maximum viral inhibition ([1]; HEp-2 cells pre-incubated 24 h, concentration at which the maximum inhibition was seen)	anti-viral activity, replicate 1 (in words) ([1]; HEp-2 pre-incubation, replicate 1 (67% infection))	Maximum viral inhibition (%) ([2]; RSV-A2 pre-incubated 1 h, 0.13-16 mg/mL, MOI 0.5, 72 h)	Test concentration maximum viral inhibition ([2]; RSV-A2 pre-incubated 1 h, concentration at which the maximum inhibition was seen)	antiviral activity (in words) ([2]; RSV-A2 pre-incubated prior to infection, both replicates (94-95% infection))	viral neutralization efficacy (viral RNA by RT-qPCR) [3]	Mean IL-8 secretion ([4]; 0.1% + Poly I:C, Poly I:C alone 21799.28)	Mean IL-8 secretion ([4]; 0.1%, no Poly I:C, Medium 359.54)	prevention of rotavirus induced decrease in TEER [5]
CC(=O)N[C@H]1[C@H]([C@H](O)[C@H](O)CO)O[C@@](OC[C@H]2O[C@@H](O[C@H]3[C@H](O)[C@@H](O)[C@H](O)O[C@@H]3CO)[C@H](O)[C@@H](O)[C@H]2O)(C(=O)O)C[C@@H]1O [6′-SL, 6′-sialyllactose]	2.6%	8 mg/mL	no anti-viral activity	−0.58%	1 mg/mL	no anti-viral activity	did not show viral neutralization efficacy	–	–	–
O=C[C@H](O)[C@@H](O)[C@H](O[C@@H]1O[C@H](CO)[C@@H](O)[C@H](O)[C@H]1O)[C@H](O)CO [Cellobiose, cellobiose]	–	–	–	–	–	–	–	20023.80 pg/mL	277.94 pg/mL	no effect
